Results on five compounds are retold here after paper PMC6893898, “Receptor Interaction Profiles of 4-Alkoxy-Substituted 2,5-Dimethoxyphenethylamines and Related Amphetamines” (Frontiers in Pharmacology, 2019).

T1 sequence (Q923Y9 whole entry): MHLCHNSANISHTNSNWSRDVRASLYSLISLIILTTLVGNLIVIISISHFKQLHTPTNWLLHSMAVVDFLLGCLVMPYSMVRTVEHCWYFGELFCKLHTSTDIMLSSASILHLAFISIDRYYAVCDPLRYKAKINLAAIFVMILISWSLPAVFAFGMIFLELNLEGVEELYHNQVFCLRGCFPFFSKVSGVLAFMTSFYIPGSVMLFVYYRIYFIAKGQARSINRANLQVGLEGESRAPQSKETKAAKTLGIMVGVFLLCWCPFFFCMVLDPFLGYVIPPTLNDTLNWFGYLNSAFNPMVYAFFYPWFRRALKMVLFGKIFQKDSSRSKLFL

The first test addresses T1, rat TAAR1 (Rattus norvegicus, UniProt Q923Y9).
T1 construct: expressed in transfected cells; host or cells: HEK 293 (membrane preparation)
The experiment in a line: Radioligand binding, rat TAAR1 ([3H]RO5166017).
Settings: not given
Take `CCOc1cc(OC)c(CCN)cc1OC` [2C-O-2, 2,5-dimethoxy-4-ethoxyphenethylamine]: the Ki is 340 ± 70 nM.
For `C=C(C)COc1cc(OC)c(CCN)cc1OC` [2C-O-3, 2,5-dimethoxy-4-methallyloxyphenethylamine], affinity was put at a Ki of 130 nM.
`C=CCOc1cc(OC)c(CCN)cc1OC` [2C-O-16, 4-allyloxy-2,5-dimethoxyphenethylamine] registered a Ki of 260 ± 70 nM.
The compound `COc1cc(OCCF)c(OC)cc1CCN` [2C-O-21, 2,5-dimethoxy-4-(2-fluoroethoxy)phenethylamine] came in with a Ki of 410 ± 40 nM.
Same read-out and setting: with `COc1cc(OCC(F)F)c(OC)cc1CCN` [2C-O-21.5, 4-(2,2-difluoroethoxy)-2,5-dimethoxyphenethylamine] the figure was 250 ± 20 nM.

The next test has as its target T2, α1A adrenergic receptor (Homo sapiens, UniProt P35348).
T2 construct: expressed in transfected cells; host or cells: Chinese hamster ovary cell line (membrane preparation)
T2 sequence (P35348 1-466): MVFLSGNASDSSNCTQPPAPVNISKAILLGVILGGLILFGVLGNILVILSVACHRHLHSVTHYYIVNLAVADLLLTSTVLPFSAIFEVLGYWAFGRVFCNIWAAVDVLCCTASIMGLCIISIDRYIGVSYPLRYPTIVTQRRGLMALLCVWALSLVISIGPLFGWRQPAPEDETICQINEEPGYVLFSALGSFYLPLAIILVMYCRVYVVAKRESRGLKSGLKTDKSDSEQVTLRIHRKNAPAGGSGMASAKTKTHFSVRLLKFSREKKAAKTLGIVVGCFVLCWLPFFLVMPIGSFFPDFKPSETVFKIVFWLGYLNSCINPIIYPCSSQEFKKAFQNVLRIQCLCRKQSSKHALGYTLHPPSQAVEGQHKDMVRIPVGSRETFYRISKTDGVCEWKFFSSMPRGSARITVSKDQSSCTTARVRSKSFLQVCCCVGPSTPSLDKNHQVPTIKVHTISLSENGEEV
Put plainly: Radioligand binding, α1A adrenergic receptor ([3H]prazosin).
Settings: not given
`CCOc1cc(OC)c(CCN)cc1OC` [2C-O-2, 2,5-dimethoxy-4-ethoxyphenethylamine] displayed a Ki greater than 6500 nM.
`C=C(C)COc1cc(OC)c(CCN)cc1OC` [2C-O-3, 2,5-dimethoxy-4-methallyloxyphenethylamine] came in with a Ki greater than 6500 nM.
`C=CCOc1cc(OC)c(CCN)cc1OC` [2C-O-16, 4-allyloxy-2,5-dimethoxyphenethylamine]: the Ki was greater than 6500 nM.
On the same count and under the same terms, under `COc1cc(OCCF)c(OC)cc1CCN` [2C-O-21, 2,5-dimethoxy-4-(2-fluoroethoxy)phenethylamine] stands greater than 6500 nM.
On the same count and under the same terms, under `COc1cc(OCC(F)F)c(OC)cc1CCN` [2C-O-21.5, 4-(2,2-difluoroethoxy)-2,5-dimethoxyphenethylamine] stands greater than 6500 nM.

The target of another test is hNET (Homo sapiens, UniProt P23975). Put plainly: Radioligand binding, NET (N-methyl-[3H]nisoxetine). Further details: expressed in transfected cells; host or cells: HEK 293 (membrane preparation).
hNET, sequence (P23975 whole entry): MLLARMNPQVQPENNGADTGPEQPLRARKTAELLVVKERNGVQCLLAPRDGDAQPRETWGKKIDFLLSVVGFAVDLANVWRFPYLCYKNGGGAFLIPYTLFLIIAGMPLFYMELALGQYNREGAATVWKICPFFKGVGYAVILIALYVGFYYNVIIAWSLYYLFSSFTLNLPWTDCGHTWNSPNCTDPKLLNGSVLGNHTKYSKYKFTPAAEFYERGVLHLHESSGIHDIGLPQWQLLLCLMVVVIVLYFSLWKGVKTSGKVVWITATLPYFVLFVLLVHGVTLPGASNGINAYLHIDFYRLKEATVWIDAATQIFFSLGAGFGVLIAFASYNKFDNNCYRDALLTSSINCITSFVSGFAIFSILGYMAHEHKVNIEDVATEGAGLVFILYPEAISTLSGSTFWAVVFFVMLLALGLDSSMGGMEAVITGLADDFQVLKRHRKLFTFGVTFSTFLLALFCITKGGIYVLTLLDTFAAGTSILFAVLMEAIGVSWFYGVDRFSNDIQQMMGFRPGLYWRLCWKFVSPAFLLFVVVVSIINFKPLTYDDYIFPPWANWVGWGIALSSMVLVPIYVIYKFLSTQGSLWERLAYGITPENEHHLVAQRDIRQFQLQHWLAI
Settings: not given
`CCOc1cc(OC)c(CCN)cc1OC` [2C-O-2, 2,5-dimethoxy-4-ethoxyphenethylamine] gave a Ki greater than 9700 nM.
`C=C(C)COc1cc(OC)c(CCN)cc1OC` [2C-O-3, 2,5-dimethoxy-4-methallyloxyphenethylamine] returned an inhibition constant (Ki) greater than 9700 nM.
Same read-out and setting: under `C=CCOc1cc(OC)c(CCN)cc1OC` [2C-O-16, 4-allyloxy-2,5-dimethoxyphenethylamine] stands greater than 9700 nM; under `COc1cc(OCCF)c(OC)cc1CCN` [2C-O-21, 2,5-dimethoxy-4-(2-fluoroethoxy)phenethylamine], greater than 9700 nM; under `COc1cc(OCC(F)F)c(OC)cc1CCN` [2C-O-21.5, 4-(2,2-difluoroethoxy)-2,5-dimethoxyphenethylamine], greater than 9700 nM.

The target in a further test is hDAT (Homo sapiens, UniProt Q01959). Put plainly: Radioligand binding, DAT ([3H]WIN35,428). Details: expressed in transfected cells; host or cells: HEK 293 (membrane preparation).
hDAT, sequence (Q01959 whole entry): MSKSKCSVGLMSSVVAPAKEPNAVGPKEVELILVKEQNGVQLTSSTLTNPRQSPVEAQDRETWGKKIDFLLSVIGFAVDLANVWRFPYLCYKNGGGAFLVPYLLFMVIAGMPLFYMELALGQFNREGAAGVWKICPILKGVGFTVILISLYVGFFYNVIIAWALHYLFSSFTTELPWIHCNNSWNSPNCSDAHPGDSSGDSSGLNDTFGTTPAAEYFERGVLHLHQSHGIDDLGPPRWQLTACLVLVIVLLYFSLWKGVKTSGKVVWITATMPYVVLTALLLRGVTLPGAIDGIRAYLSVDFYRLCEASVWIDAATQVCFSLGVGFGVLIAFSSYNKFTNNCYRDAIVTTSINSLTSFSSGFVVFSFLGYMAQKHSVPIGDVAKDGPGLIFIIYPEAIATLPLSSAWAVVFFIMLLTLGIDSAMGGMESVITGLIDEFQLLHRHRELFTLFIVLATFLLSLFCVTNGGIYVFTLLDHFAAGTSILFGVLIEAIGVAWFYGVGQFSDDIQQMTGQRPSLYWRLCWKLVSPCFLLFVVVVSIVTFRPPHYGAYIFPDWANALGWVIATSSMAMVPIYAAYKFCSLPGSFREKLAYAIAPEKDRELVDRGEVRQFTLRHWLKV
Settings: not given
The compound `CCOc1cc(OC)c(CCN)cc1OC` [2C-O-2, 2,5-dimethoxy-4-ethoxyphenethylamine] displayed a Ki greater than 8700 nM.
On the same count and under the same terms, with `C=C(C)COc1cc(OC)c(CCN)cc1OC` [2C-O-3, 2,5-dimethoxy-4-methallyloxyphenethylamine] the figure was greater than 8700 nM; with `C=CCOc1cc(OC)c(CCN)cc1OC` [2C-O-16, 4-allyloxy-2,5-dimethoxyphenethylamine], greater than 8700 nM.
For the compound `COc1cc(OCCF)c(OC)cc1CCN` [2C-O-21, 2,5-dimethoxy-4-(2-fluoroethoxy)phenethylamine], the Ki is greater than 8700 nM.
`COc1cc(OCC(F)F)c(OC)cc1CCN` [2C-O-21.5, 4-(2,2-difluoroethoxy)-2,5-dimethoxyphenethylamine] displayed a Ki greater than 8700 nM.

For a further test, the target named is T3, human 5-HT2B receptor (Homo sapiens, UniProt P41595).
T3 construct: expressed in transfected cells; host or cells: HEK 293
T3 sequence (P41595 whole entry): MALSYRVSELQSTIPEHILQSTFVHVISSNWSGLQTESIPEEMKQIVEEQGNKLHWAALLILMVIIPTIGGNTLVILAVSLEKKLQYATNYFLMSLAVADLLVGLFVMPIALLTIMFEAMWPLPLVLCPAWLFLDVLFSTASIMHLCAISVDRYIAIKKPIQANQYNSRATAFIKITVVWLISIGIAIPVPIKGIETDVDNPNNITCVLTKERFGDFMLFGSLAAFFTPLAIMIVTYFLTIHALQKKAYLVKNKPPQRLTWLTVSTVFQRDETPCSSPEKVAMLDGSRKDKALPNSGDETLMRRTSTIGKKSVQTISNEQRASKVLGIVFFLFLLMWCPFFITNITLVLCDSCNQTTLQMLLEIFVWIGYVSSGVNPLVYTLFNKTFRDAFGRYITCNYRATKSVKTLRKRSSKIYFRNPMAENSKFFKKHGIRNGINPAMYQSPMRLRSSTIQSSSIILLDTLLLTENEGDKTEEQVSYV
Put plainly: Activity at the 5-HT2B receptor (FLIPR calcium, HEK 293 cells). The test is classed as cell-based.
Settings: not given
As for the experimental part:
Activity at the 5-HT2B receptor was examined as previously described ([Luethi et al., 2018]). In summary, HEK 293 cells expressing the human 5-HT2B receptor were seeded at a density of 50,000 cells per well in 96-well poly-D-lysine-coated plates overnight at 37°C. The cells were then incubated in growth medium consisting of high glucose Dulbecco’s modified Eagle’s medium (DMEM) (Invitrogen, Zug, Switzerland), 10% fetal calf serum (non-dialyzed, heat-inactivated), 250 mg/l Geneticin and 10 ml/l PenStrep (Gibco), overnight at 37°C. After removal of the growth medium via snap inversion, calcium indicator Fluo-4-solution (100 µl) was injected into each well (Molecular Probes, Eugene, OR, USA) and incubated for 45 min at 31°C. Afterwards, the Fluo-4 solution was removed (snap inversion) and a further 100 µl of the Fluo-4 solution was added and incubated (45 min, 31°C). Thereafter, using the EMBLA cell washer, the cells were washed just before testing with HBSS and 20 mM HEPES and exposed to 100 µl of assay buffer. The well plate was positioned in the FLIPR and while online, 25 µl of the test compounds diluted in assay buffer were added. Concentration-response curves were calculated using nonlinear regression, and EC50 values were obtained. The maximal activity at the receptors was calculated relative to 5-HT activity which was defined as 100%.
Consider `CCOc1cc(OC)c(CCN)cc1OC` [2C-O-2, 2,5-dimethoxy-4-ethoxyphenethylamine], for which the EC50 was 49 ± 44 nM.
For the compound `C=C(C)COc1cc(OC)c(CCN)cc1OC` [2C-O-3, 2,5-dimethoxy-4-methallyloxyphenethylamine], the EC50 is 68 ± 21 nM.
`C=CCOc1cc(OC)c(CCN)cc1OC` [2C-O-16, 4-allyloxy-2,5-dimethoxyphenethylamine]: the EC50 was found to be 120 ± 70 nM.
Regarding `COc1cc(OCCF)c(OC)cc1CCN` [2C-O-21, 2,5-dimethoxy-4-(2-fluoroethoxy)phenethylamine], the EC50 came out at 900 ± 450 nM.
Consider `COc1cc(OCC(F)F)c(OC)cc1CCN` [2C-O-21.5, 4-(2,2-difluoroethoxy)-2,5-dimethoxyphenethylamine], for which the concentration giving a half-maximal response (EC50) was determined as 480 ± 260 nM and the “Increase in 5-HT2B activation potency compared to 2C-O-21 (9)” value came to 2 fold.

Still in this test, the particulars now being: HEK293, relative to 5-HT = 100%; read-out: h5-HT2B Activation efficacy max ± SD.
`CCOc1cc(OC)c(CCN)cc1OC` [2C-O-2, 2,5-dimethoxy-4-ethoxyphenethylamine]: the Emax is 85 to 101%.
With `C=C(C)COc1cc(OC)c(CCN)cc1OC` [2C-O-3, 2,5-dimethoxy-4-methallyloxyphenethylamine], the Emax is 50 ± 22%.
In the case of `C=CCOc1cc(OC)c(CCN)cc1OC` [2C-O-16, 4-allyloxy-2,5-dimethoxyphenethylamine], the Emax came out at 42 ± 13%.
For the compound `COc1cc(OCCF)c(OC)cc1CCN` [2C-O-21, 2,5-dimethoxy-4-(2-fluoroethoxy)phenethylamine], the Emax was 39 ± 26%.
Still for that read-out and setting: under `COc1cc(OCC(F)F)c(OC)cc1CCN` [2C-O-21.5, 4-(2,2-difluoroethoxy)-2,5-dimethoxyphenethylamine] stands 28 ± 23%.

In the next test the target is T4, 5-HT1A receptor (Homo sapiens, UniProt P08908).
T4 construct: expressed in transfected cells; host or cells: HEK 293 (membrane preparation)
T4 sequence (P08908 1-422): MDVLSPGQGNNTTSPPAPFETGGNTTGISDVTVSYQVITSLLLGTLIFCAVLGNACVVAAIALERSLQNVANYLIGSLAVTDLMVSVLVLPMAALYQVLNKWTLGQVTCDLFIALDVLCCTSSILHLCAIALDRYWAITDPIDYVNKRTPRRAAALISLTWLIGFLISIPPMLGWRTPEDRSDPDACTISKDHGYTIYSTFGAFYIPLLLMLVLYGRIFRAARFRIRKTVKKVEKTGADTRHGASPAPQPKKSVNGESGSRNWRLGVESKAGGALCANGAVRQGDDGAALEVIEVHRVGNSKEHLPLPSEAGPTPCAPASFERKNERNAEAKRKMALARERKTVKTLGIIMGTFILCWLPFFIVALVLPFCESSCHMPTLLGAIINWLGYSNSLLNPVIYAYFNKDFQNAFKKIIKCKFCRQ
The experiment in a line: Radioligand binding, 5-HT1A receptor ([3H]8-OH-DPAT).
Settings: not given
Regarding `CCOc1cc(OC)c(CCN)cc1OC` [2C-O-2, 2,5-dimethoxy-4-ethoxyphenethylamine], the Ki was determined as 3600 ± 400 nM.
In the case of `C=C(C)COc1cc(OC)c(CCN)cc1OC` [2C-O-3, 2,5-dimethoxy-4-methallyloxyphenethylamine], the affinity, expressed as Ki, was 2700 ± 200 nM.
With `C=CCOc1cc(OC)c(CCN)cc1OC` [2C-O-16, 4-allyloxy-2,5-dimethoxyphenethylamine], the Ki is 4500 ± 500 nM.
The same measure, in the same setting: with `COc1cc(OCCF)c(OC)cc1CCN` [2C-O-21, 2,5-dimethoxy-4-(2-fluoroethoxy)phenethylamine] the figure was 5500 nM.
As for `COc1cc(OCC(F)F)c(OC)cc1CCN` [2C-O-21.5, 4-(2,2-difluoroethoxy)-2,5-dimethoxyphenethylamine], the Ki was determined as 2900 ± 200 nM.

Another test concerns the target T5, 5-HT2C receptor (Homo sapiens, UniProt P28335).
T5 construct: expressed in transfected cells; host or cells: HEK 293 (membrane preparation)
T5 sequence (P28335 33-458): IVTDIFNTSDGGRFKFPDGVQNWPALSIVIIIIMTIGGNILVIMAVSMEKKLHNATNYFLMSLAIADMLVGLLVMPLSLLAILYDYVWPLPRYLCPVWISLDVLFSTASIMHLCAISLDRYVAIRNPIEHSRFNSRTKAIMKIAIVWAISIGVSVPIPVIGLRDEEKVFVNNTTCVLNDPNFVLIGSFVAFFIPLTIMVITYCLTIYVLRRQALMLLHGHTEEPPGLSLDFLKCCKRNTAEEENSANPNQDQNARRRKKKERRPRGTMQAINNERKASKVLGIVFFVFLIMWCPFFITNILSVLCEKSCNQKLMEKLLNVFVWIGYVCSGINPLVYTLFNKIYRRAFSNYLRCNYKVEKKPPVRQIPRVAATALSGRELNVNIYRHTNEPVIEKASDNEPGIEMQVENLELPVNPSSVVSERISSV
Put plainly: biochemical. The format is binding. The conditions noted are these: [3H]mesulgerine; read-out: h5-HT2C Receptor binding Ki ± SD.
For the compound `CCOc1cc(OC)c(CCN)cc1OC` [2C-O-2, 2,5-dimethoxy-4-ethoxyphenethylamine], the Ki amounted to 2300 ± 1200 nM.
Regarding `C=C(C)COc1cc(OC)c(CCN)cc1OC` [2C-O-3, 2,5-dimethoxy-4-methallyloxyphenethylamine], the Ki was found to be 150 ± 30 nM.
As to `C=CCOc1cc(OC)c(CCN)cc1OC` [2C-O-16, 4-allyloxy-2,5-dimethoxyphenethylamine], the Ki turned out to be 470 ± 40 nM.
Same read-out and setting: with `COc1cc(OCCF)c(OC)cc1CCN` [2C-O-21, 2,5-dimethoxy-4-(2-fluoroethoxy)phenethylamine] the figure was 3600 ± 1900 nM.
With `COc1cc(OCC(F)F)c(OC)cc1CCN` [2C-O-21.5, 4-(2,2-difluoroethoxy)-2,5-dimethoxyphenethylamine], the Ki is 4200 ± 1500 nM.

For the next test, the target named is T6, α2A adrenergic receptor (Homo sapiens, UniProt P08913).
T6 construct: expressed in transfected cells; host or cells: Chinese hamster lung cell line (membrane preparation)
T6 sequence (P08913 1-465): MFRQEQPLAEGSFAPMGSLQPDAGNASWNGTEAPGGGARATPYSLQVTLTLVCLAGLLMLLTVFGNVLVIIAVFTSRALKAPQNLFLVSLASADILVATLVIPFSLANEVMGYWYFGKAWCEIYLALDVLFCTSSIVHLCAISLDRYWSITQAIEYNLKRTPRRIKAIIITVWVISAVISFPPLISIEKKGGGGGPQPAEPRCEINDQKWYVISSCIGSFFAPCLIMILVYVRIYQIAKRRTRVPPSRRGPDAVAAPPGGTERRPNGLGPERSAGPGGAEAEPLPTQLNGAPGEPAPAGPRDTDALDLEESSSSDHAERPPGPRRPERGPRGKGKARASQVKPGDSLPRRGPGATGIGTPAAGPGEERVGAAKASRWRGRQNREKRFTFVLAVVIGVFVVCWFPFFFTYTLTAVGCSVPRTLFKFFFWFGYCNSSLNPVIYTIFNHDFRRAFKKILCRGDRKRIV
Put plainly: Radioligand binding, α2A adrenergic receptor ([3H]rauwolscine).
Settings: not given
`CCOc1cc(OC)c(CCN)cc1OC` [2C-O-2, 2,5-dimethoxy-4-ethoxyphenethylamine]: the affinity corresponds to a Ki of 2600 ± 100 nM.
`C=C(C)COc1cc(OC)c(CCN)cc1OC` [2C-O-3, 2,5-dimethoxy-4-methallyloxyphenethylamine] came in with a Ki of 180 ± 10 nM.
As to `C=CCOc1cc(OC)c(CCN)cc1OC` [2C-O-16, 4-allyloxy-2,5-dimethoxyphenethylamine], the Ki worked out at 620 ± 20 nM.
`COc1cc(OCCF)c(OC)cc1CCN` [2C-O-21, 2,5-dimethoxy-4-(2-fluoroethoxy)phenethylamine] had a Ki of 3600 ± 500 nM.
With `COc1cc(OCC(F)F)c(OC)cc1CCN` [2C-O-21.5, 4-(2,2-difluoroethoxy)-2,5-dimethoxyphenethylamine], the Ki amounted to 1900 ± 100 nM.
